The values that follow are results of earlier work, collected in patent US20240216293A1, “USE OF PERILLYL ALCOHOL TO ENHANCE LEVO-DOPA DELIVERY” (NEONC TECHNOLOGIES, INC, priority 2021, published 2024).

For the series, the system named is patients with recurrent malignant gliomas. The settings on record: Phase I/IIa trials, intranasal.

In the case of `C=C(C)C1CC=C(CO)CC1` (stereo not shown) [NEO100, perillyl alcohol], the toxic side effects entry is on record as “without toxic side effects”.
